≈ marks a conversion by molar mass, not a printed value.

For data set [1] the following is noted: cited from earlier work.
Data set [2] is described as follows: Solubility of PMIDA in water and HCl at various temperatures and pressures. Type of data set: physicochemical. As to conditions: for solubility thermodynamic: aqueous buffer, thermodynamic from solid. The text has this:
In certain embodiments, the organophosphorous compound comprising a phosphonoalkyl moiety is at least partially solubilized in the acid component. As used herein, the term “at least partially solubilized,” and grammatical variants thereof, with reference to the organophosphorous compound comprising a phosphonoalkyl moiety in the acid component refers to dissolution of at least about 2% weight per volume (w/v) of the organophosphorous compound comprising a phosphonoalkyl moiety in the acid component at room temperature. As used herein, the term “room temperature” refers to about 15° C. to about 25° C. The remaining excess organophosphorous compound comprising a phosphonoalkyl moiety may be suspended in the acid component while it is undergoing dynamic fluid flow at room temperature. As temperatures increase (e.g., as the treatment fluid is introduced into a subterranean formation and encounters downhole temperatures), the solubility of the organophosphorous compound comprising a phosphonoalkyl moiety in the acid component may increase. Indeed, the solubility of the organophosphorous compound comprising a phosphonoalkyl moiety increases as a function of acid concentration, and temperature.

`O=C(O)CN(CCO)CC(=O)O` [HEIDA, N-(2-hydroxyethyl)iminodiacetic acid]: in data set [1], the pKa values entry is recorded as “about 2.2”.

As a reminder, the solubility (thermodynamic) is the concentration in solution at equilibrium with solid. Consider `O=C(O)CN(CC(=O)O)CP(=O)(O)O` [PMIDA, N-(phosphonomethyl)iminodiacetic acid], for which the solubility (thermodynamic) in data set [2] (7.5% HCl, 37.8 °C, Atm., 100° F.) came to 17.4 mg/mL (≈ 76.6 mM); in data set [2] (7.5% HCl, 65.6 °C, Atm., 150° F.) it was 39.7 mg/mL (≈ 175 mM); in data set [2] (10% HCl, 37.8 °C, Atm., 100° F.), 20 mg/mL (≈ 88.1 mM); in data set [2] (10% HCl, 65.6 °C, Atm., 150° F.), 49.1 mg/mL (≈ 216 mM); in data set [2] (10% HCl, 93.3 °C, Atm., 200° F.), 101 mg/mL (≈ 445 mM); in data set [2] (15% HCl, 37.8 °C, 200 psi, 100° F.), 41.1 mg/mL (≈ 181 mM). For the same compound, the thermodynamic solubility in data set [2] (15% HCl, 37.8 °C, Atm., 100° F.) worked out at 30.6 mg/mL (≈ 135 mM); in data set [2] (15% HCl, 65.6 °C, 200 psi, 150° F.), 95.7 mg/mL (≈ 421 mM); in data set [2] (15% HCl, 65.6 °C, Atm., 150° F.) it was 72.2 mg/mL (≈ 318 mM); in data set [2] (15% HCl, 93.3 °C, 200 psi, 200° F.), 203 mg/mL (≈ 896 mM); in data set [2] (15% HCl, 93.3 °C, Atm., 200° F.), 166 mg/mL (≈ 731 mM). Moreover, in data set [2] (Atm., 7.5% HCl, 200° F.), the “Solubility Average” value stood at 10.00 w/v %.

With `O=C([O-])CC(NC(C(=O)[O-])C(O)C(=O)[O-])C(=O)[O-].[Na+].[Na+].[Na+].[Na+]` (centres unmarked) [HIDS, tetrasodium 3-hydroxy-2,2′-iminodisuccinate], the pKa values entry in data set [1] is “about 2.83”.

The values above are taken from patent US20230065437A1, “ACIDIZING OF SUBTERRANEAN FORMATIONS WITH PLACEMENT OF SCALE INHIBITOR” (priority 2021, published 2023).
